Laboratory results reported in ChEMBL document CHEMBL1201862, “PubChem BioAssay data set” (2004).
Active and inactive are the calls of the source.

How the values were obtained:
[1] = molecular target: T1, Heat shock factor protein 1 (Mus musculus, UniProt P38532); experiment: HSF1 potentiators in luciferase reporter cells, confirmation, cell-based, NIH3T3, luminescence, dose retest (AID 435004); assay type: functional;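 also: stress induced by proteasome inhibitor MG132 added 30 min after compound; luciferase reporter driven by HSF1 response element in NIH3T3 cells; actives raise luminescence as potentiators of the MG132 stress response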
T1 sequence (P38532 whole entry): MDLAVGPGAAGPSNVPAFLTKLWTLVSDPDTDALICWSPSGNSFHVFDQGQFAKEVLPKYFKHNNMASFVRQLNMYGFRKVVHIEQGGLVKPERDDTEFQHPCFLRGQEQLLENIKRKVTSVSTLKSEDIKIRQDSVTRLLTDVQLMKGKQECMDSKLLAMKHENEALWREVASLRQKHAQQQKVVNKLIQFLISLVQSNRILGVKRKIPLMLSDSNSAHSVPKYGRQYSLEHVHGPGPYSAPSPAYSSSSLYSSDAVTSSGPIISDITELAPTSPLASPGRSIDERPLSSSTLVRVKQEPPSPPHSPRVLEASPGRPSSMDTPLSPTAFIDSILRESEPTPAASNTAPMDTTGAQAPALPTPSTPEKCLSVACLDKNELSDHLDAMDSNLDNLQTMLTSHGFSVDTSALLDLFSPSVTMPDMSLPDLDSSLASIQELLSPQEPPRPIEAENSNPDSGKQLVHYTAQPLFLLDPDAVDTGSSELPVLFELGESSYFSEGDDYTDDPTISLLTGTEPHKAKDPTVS

[2] = molecular target: FAD-linked sulfhydryl oxidase ALR (Homo sapiens, UniProt P55789); experiment: inhibitors of human ALR sulfhydryl oxidase, dose response, biochemical, H2O2 detection, luminescence, cherry-pick (AID 493248)
FAD-linked sulfhydryl oxidase ALR, sequence (P55789 whole entry): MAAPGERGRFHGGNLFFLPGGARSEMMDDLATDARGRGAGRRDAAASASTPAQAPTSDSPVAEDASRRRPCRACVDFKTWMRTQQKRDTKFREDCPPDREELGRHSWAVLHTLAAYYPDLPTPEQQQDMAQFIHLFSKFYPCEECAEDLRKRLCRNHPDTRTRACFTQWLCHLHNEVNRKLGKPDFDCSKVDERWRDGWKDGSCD

[3] = molecular target: Luciferin 4-monooxygenase (Photinus pyralis, UniProt P08659); experiment: firefly luciferase enzyme inhibitors, dose response, biochemical, luminescence (AID 1891)
Luciferin 4-monooxygenase, sequence (P08659 whole entry): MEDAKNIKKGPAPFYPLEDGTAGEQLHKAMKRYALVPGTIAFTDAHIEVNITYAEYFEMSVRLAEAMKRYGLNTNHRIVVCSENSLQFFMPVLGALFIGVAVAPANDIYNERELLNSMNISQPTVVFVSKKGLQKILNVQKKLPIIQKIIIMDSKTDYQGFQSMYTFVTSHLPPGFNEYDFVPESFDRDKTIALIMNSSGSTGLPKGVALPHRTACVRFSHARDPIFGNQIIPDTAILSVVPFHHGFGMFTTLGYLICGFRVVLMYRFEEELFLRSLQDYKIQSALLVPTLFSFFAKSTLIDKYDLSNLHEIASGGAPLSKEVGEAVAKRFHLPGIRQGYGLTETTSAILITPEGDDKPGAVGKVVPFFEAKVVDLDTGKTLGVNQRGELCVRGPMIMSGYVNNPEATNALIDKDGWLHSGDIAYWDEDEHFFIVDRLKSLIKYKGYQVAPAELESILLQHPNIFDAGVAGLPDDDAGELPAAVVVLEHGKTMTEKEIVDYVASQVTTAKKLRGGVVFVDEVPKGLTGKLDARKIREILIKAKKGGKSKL

[4] = Luminescence Cell-Based Dose Confirmation HTS to Identify Inhibitors of Platelet Dense Granule Release. [Related pubchem assays: 1663 (Primary HTS), 1678 (Summary of Project)]; assay type: functional
[5] = molecular target: Cytochrome P450 2C19 (Homo sapiens, UniProt P33261); experiment: Cytochrome panel assay with activity outcomes. Panel member name: p450-cyp2c19 Compounds with AC50 equal or less than 10 uM are considered active; assay type: functional; conditions: read-out: AC50
Cytochrome P450 2C19, sequence (P33261 whole entry): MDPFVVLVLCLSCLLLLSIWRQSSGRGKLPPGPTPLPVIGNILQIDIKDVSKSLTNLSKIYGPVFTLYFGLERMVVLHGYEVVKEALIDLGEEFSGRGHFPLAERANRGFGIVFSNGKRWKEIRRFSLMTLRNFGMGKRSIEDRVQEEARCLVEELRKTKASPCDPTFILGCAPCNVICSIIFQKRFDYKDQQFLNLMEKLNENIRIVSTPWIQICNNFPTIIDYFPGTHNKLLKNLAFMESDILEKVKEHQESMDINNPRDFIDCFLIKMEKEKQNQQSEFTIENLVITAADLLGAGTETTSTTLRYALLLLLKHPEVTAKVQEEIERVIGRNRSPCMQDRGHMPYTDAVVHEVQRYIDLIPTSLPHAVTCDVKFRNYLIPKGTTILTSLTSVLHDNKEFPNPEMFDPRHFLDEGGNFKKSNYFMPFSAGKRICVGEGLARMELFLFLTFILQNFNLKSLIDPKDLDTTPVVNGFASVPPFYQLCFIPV

[6] = molecular target: Cytochrome P450 3A4 (Homo sapiens, UniProt P08684);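 also: CYP3A4 tested as one member of a cytochrome P450 panel screen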
Cytochrome P450 3A4, sequence (P08684 whole entry): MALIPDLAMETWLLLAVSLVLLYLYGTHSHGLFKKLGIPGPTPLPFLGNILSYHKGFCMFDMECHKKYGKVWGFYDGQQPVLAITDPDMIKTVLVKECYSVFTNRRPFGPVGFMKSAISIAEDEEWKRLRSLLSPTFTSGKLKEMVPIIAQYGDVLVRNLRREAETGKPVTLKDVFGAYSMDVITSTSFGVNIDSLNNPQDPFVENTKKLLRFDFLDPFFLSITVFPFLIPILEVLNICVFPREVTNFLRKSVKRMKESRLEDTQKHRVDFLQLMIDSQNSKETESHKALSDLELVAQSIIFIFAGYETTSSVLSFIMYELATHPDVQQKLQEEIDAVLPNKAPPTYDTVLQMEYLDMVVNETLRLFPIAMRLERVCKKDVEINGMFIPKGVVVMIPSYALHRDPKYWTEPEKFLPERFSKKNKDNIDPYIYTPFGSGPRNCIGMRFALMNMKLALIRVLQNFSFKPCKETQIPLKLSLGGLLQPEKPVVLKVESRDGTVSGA

[7] = molecular target: Cytochrome P450 2C9 (Homo sapiens, UniProt P11712)
Cytochrome P450 2C9, sequence (P11712 whole entry): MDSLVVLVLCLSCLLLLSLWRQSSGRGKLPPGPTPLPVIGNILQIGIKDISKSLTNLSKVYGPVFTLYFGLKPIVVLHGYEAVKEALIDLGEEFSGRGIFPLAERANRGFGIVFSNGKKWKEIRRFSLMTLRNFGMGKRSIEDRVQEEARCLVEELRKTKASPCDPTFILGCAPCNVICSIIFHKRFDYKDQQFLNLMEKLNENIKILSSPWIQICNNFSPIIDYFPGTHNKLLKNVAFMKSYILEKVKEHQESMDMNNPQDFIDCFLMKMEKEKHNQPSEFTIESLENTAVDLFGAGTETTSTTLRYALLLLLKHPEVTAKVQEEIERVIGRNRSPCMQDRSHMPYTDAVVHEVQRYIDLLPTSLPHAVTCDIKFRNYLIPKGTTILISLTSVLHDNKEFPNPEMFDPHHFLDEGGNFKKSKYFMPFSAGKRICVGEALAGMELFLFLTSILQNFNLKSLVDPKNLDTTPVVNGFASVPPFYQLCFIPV

[8] = Luminescence Cell-Based Dose Retest to Confirm Inhibitors of Cancer Stem Cells. [Related pubchem assays (depositor defined):AID2717, AID2721]; assay type: functional; conditions: Homo sapiens
[9] = molecular target: T2, Corticotropin-releasing factor receptor 2/Corticotropin-releasing factor-binding protein (Homo sapiens, UniProt P24387+Q13324); experiment: activators of CRF receptor 2 with binding protein – uHTS hits, confirmation (AID 602473); assay type: functional; conditions: read-out: EC50_Mean
T2 sequence (Q13324 whole entry): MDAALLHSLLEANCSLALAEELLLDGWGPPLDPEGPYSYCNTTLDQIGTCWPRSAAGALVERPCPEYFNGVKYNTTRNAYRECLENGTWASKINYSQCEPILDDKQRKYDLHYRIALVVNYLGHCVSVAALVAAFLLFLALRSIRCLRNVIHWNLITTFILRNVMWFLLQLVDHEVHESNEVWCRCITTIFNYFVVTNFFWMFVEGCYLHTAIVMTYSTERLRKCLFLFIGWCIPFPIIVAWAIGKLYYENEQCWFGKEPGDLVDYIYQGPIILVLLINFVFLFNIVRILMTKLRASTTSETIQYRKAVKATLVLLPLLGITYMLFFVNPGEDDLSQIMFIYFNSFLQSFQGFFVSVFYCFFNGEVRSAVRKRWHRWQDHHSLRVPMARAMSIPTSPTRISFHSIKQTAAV
T2 sequence (P24387 whole entry): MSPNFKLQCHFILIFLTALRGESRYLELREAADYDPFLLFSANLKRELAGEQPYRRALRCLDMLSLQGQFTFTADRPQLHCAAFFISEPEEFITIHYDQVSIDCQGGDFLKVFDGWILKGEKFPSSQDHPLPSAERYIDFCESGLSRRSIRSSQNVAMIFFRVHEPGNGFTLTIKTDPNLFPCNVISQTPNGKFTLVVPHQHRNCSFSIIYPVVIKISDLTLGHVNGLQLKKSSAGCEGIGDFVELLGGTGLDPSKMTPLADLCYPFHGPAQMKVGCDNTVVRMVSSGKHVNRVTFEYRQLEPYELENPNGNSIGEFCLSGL

[10] = molecular target: Cytochrome P450 2D6 (Homo sapiens, UniProt P10635);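 also: CYP2D6 member of a cytochrome P450 panel assay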
Cytochrome P450 2D6, sequence (P10635 whole entry): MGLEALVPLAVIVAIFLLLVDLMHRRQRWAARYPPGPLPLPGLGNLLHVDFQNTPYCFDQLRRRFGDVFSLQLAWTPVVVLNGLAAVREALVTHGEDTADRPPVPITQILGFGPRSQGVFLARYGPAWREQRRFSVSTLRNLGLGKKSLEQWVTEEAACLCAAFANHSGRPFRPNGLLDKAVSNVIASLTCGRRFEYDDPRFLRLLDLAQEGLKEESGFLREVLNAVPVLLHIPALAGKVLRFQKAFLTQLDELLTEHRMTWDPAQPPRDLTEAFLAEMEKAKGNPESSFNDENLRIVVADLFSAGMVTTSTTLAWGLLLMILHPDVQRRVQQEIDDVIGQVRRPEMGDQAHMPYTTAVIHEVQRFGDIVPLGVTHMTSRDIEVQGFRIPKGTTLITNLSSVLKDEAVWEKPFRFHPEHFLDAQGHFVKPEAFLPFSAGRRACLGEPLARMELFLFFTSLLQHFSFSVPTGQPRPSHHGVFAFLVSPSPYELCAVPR

CCOc1cc(C(=S)N2CCOCC2)ccc1OS(=O)(=O)c1ccc(C)cc1
EC50 [1]: > 260 µM (inactive)

O=C(O)c1c(Cl)c(Cl)c(Cl)c(Cl)c1C(=O)N1CCCC1
EC50 [1]: > 260 µM (inactive)

Cc1cccc(NC(=O)CC(C)S(=O)(=O)c2ccc3c(c2)NC(=O)CO3)c1C (configuration not stated)
EC50 [1]: > 260 µM (inactive)

COC(=O)C1CCN(C(=O)COC(=O)c2ccc(OC)c(S(=O)(=O)N3CCCc4ccccc43)c2)CC1
EC50 [1]: > 260 µM (inactive)

COc1ccc(Br)cc1C(=O)Nc1ccc(O)cc1
AC50 [2]: 2.75 µM (active)

COC(=O)c1ccc(N2CCN(CC(=O)c3ccc(-c4ccccc4)cc3)CC2)c([N+](=O)[O-])c1
EC50 [3]: > 112 µM (not active) | EC50 [4]: > 112 µM (not active)

CCN1CCCC1CNC(=O)C1c2cc(OC)c(OC)cc2C(=O)N(C)C1c1cccnc1 (configuration not stated)
AC50 [5]: 1.12 µM (inconclusive) | AC50 [6]: 5.62 µM (inconclusive) | AC50 [7]: 1.78 µM (inconclusive)

Cc1ccc(NC(=O)CSCc2ccc(F)cc2)cc1
EC50 [3]: > 112 µM (not active) | EC50 [4]: > 112 µM (not active)

CNC(=O)[C@H]1O[C@H](n2cnc3c(NCc4cccc(I)c4)ncnc32)[C@@H](O)[C@@H]1O
AC50 [6]: 31.6 µM (inconclusive)

CC(NC(=O)c1cc(S(=O)(=O)N2CCCC2)cn1C)c1ccccc1 (configuration not stated)
EC50 [3]: > 112 µM (not active) | EC50 [4]: > 112 µM (not active)

COc1ccc(C2NC(=O)c3[nH]nc(C)c32)c(OC)c1 (configuration not stated)
EC50 [3]: > 112 µM (not active) | EC50 [4]: 2.83 µM (active)

COc1ccc(N2CCN(C(CNC(C)=O)c3ccc4c(c3)OCO4)CC2)cc1 (configuration not stated)
AC50 [2]: 4.58 µM (active)

Cc1ccc(O)c(NC(=O)C2CCCN2C(=O)OCc2ccccc2)c1 (configuration not stated)
AC50 [2]: 8.89 µM (active)

Cc1ccc(Nc2nc(N3CCOCC3)c3ccccc3n2)cc1
EC50 [3]: > 112 µM (not active) | EC50 [4]: > 112 µM (not active)

Cc1[nH]c2ccccc2c1C(=O)CSc1nncn1C
EC50 [3]: > 112 µM (not active) | EC50 [4]: > 112 µM (not active)

CCN(CCNC(=O)c1ccc(C#N)cc1)c1cccc(C)c1
AC50 [2]: 1.75 µM (active)

COc1ccc(OC)c(NC(=O)NNC(=O)COc2ccc(-c3ccccc3)cc2)c1
AC50 [8]: 47.3 µM (active)

CCc1ccc(CN2C(=O)c3ccccc3C2C(=O)NCC2CCCO2)cc1 (configuration not stated)
EC50 [1]: 137 µM (active)

O=C(NCCc1ccccc1)C(=O)NCC1(c2ccccc2)CCCC1
AC50 [5]: 39.8 µM (inconclusive) | AC50 [6]: 3.16 µM (inconclusive)

NC(=O)NC(=O)CSc1nnc(-c2ccco2)n1Cc1ccccc1
AC50 [6]: 25.1 µM (inconclusive) | AC50 [7]: 12.6 µM (inconclusive)

CC1=CC(=O)OC2CC3OC4C[C@@H](C)C5OC6CC7O[C@]8(C)C/C=C\C9OC%10CC%11OC(CC(C)C%12OCCO%12)CC(O)[C@]%11(C)OC%10CC9OC8C[C@]7(C)O[C@]6(C)CCC5OC4C[C@]3(C)OC12 (some centres not stated)
EC50 [9]: 5.68 µM (active)

O=c1c(/C=N/Nc2ccccc2)c(Sc2nnnn2-c2ccccc2)nc2ccccn12
EC50 [9]: 10.1 µM (active)

COc1ccc(Br)cc1/C=N/Nc1ccc(Cl)c(C(=O)O)c1
AC50 [2]: 6.26 µM (active)

COc1nc(Oc2ccc(/C=N/O)cc2)nc(N(C)C)n1
AC50 [10]: 22.4 µM (inconclusive) | AC50 [2]: 2.99 µM (active) | AC50 [5]: 17.8 µM (inconclusive)

Cc1[nH]c2ccccc2c1/C=N/O
AC50 [2]: 20.2 µM (active)
